# Patent publication US20080241084A1, “Compositions and methods for inhibiting melanogenesis” (Shaklee Corporation, priority 2007, published 2008)
# “And” between values parts separate entries of the source, which are not always exact repeats. Equal values may be shown once.
# Assays:
# [1] = tested on: MelanoDerm tissue (MEL-300-B); test: Macroscopic skin lightening of fixed MelanoDerm tissue; assay type: cell-based, human; conditions: fixed tissues
# Procedure: (§1) The effects of the test articles on skin color, melanin production, melanocyte morphology and dendricity and tissue morphology were assessed using MelanoDerm tissue (MEL-300-B). MelanoDerm tissue is another epidermal equivalent system from the MatTek Corporation of Ashland, Mass. This system consists of normal, human-derived epidermal keratinocytes (NHEK) and melanocytes (NHM) which have been cultured to form a multilayered, highly differentiated model of the human epidermis. The NHM within co-cultures undergo spontaneous melanogenesis leading to tissue pigmentation. The MEL-300-B system contains melanocytes derived from a donor.
# On Day zero of the study, prior to exposure to any test articles, MelanoDerm tissue samples were placed into wells on plates containing maintenance medium that had been pre-warmed to about 37° C. (Long life maintenance medium, EPI-100-LLMM). The Melanoderm tissue samples were then incubated for about an hour in a humidified incubator maintained at a temperature of about 37° C. in an atmosphere of about 5% CO2. Following incubation, the maintenance medium was removed by aspiration. A cell culture stand was then placed in each well on the plate containing a MelanoDerm tissue sample. About 5 mL of fresh maintenance medium pre-warmed to about 37° C. was then added to each well having a MelanoDerm tissue sample. […]
# [2] = tested on: EpiDerm tissue (normal, human-derived epidermal keratinocytes); test: MTT tissue viability assay on EpiDerm tissue; assay type: cell-based; conditions: 48 hours of exposure, negative control = 100%
# Procedure: The effect of the tested articles on cell viability was determined with an MTT assay. 10 μL and 25 μL portions of each of GS, SB, A, FS, DG and Mix were applied to separate duplicate samples of EpiDerm tissue (e.g., GS was applied to four tissue samples, with two samples receiving 10 μL and two samples receiving 25 μL of GS). 25 μL of the negative control was applied to each of three separate samples of EpiDerm tissue. EpiDerm tissue is an epidermal equivalent system from the MatTek Corporation of Ashland, Mass., consisting of normal, human-derived epidermal keratinocytes (NHEK) which have been cultured to form a multilayered, highly differentiated model of the human epidermis. After 48 hours of exposure to the test article or negative control each sample was rinsed with phosphate buffered saline (PBS) and the viability of the tissue (referenced to the negative control) was determined using the MTT tissue viability assay.
# The MTT assay determines cell viability by measuring the amount of 3-(4,5-dimethylthiazol-2-yl)-2,5-diphenyltetrazolium bromide (MTT) dye taken up by the cell cultures. Viable cells take up this dye and convert it to insoluble formazin crystals that resides in the mitochondria of the cells until extracted with alcohol. […] MTT was measured spectrophotometrically and the optical density of each sample was determined. […]
# [3] = tested on: MelanoDerm tissue (MEL-300-B); test: Melanin assay on MelanoDerm tissue (MEL-300-B); assay type: cell-based, human; parameters: % melanin content relative to the Negative Control / % melanin content relative to the Positive Control: concentration or dose not given beside the values; conditions: for Melanin content of the two tested samples for each test article: 25 μL applied Days 0, 1, 3, 6, 8
# Procedure: as §1
# On Day zero of the study, prior to exposure to any test articles, MelanoDerm tissue samples were placed into wells on plates containing maintenance medium that had been pre-warmed to about 37° C. (Long life maintenance medium, EPI-100-LLMM). The Melanoderm tissue samples were then incubated for about an hour in a humidified incubator maintained at a temperature of about 37° C. in an atmosphere of about 5% CO2. Following incubation, the maintenance medium was removed by aspiration. A cell culture stand was then placed in each well on the plate containing a MelanoDerm tissue sample. About 5 mL of fresh maintenance medium pre-warmed to about 37° C. was then added to each well having a MelanoDerm tissue sample. Then a cell culture insert was placed on top of each cell culture stand. 25 μL portions of each of GS, SB, A, FS, DG, Mix, negative control, and positive control were applied by pipette to six separate MelanoDerm tissue samples for each test article being tested (e.g., GS was applied to six tissue samples in six different wells). 25 μL portions of each of the test articles and controls were also applied to the same MelanoDerm tissue samples on Days, 1, 3, 6, and 8 of the study for each sample remaining (some samples were used for testing). Throughout the study, the maintenance medium was changed every two days to maintain the MelanoDerm tissue samples.
# On each of Days 3, 7, 10, and 14, one tissue sample for each test article and control was fixed with formalin, photographed to document macroscopic darkening, microscopically observed to examine melanocyte morphology and dendricity, then processed for histology. On Days 10 and 14, two tissue samples for each test article and control were frozen and later assayed for melanin content.
# To assay the tissues for melanin content, the frozen tissues were thawed and placed in Dulbecco's phosphate buffered saline (D-PBS) to remove excess phenol red from the maintenance medium. The tissues were removed from the D-PBS and each tissue was blotted dry and placed in a separate 1.7 ml microfuge tube. To each microfuge tube 250 μl of a tissue and gel solubilizer was added (Solvable™, 0.5 M—Packard BioScience Co. Catalogue No. 6NE9 100 (NEF910)). Dilutions for creating a standard curve were also prepared containing from 0-250 μg of melanin (Sigma cat. M 8631) in a total of 250 μl Solvable™. The tissues were incubated in their tubes overnight at about 60° C. overnight along with the dilutions. The tissue samples were then vortexed. Then the tissue samples were centrifuged at 13,000 rpm for 5 minutes to pellet. The supernatant from the tissue samples was collected. 250 μl of the supernatant from each tissue sample as well as the dilutions were then added to separate wells of a microwell plate. The plate was read at 490 nm. The optical densities of the dilutions were used to prepare a standard curve against which the optical densities of the tissue sample supernatants could be compared to determine the melanin content of the tissue samples. […]
Compound,"macroscopic lightening compared with the negative control ([1]; Days 3, 7, 10, and 14)",% Viability of tissue sample exposed to test article ([2]; 10 mL (so in the source) applied),% Viability of tissue sample exposed to test article ([2]; 25 mL (so in the source) applied),% melanin content relative to the Negative Control ([3]; Day 10),% melanin content relative to the Positive Control ([3]; Day 10),Average melanin content ([3]; Day 10),Melanin content of the two tested samples for each test article ([3]; Day 10),% melanin content relative to the Negative Control ([3]; Day 14),% melanin content relative to the Positive Control ([3]; Day 14),Average melanin content ([3]; Day 14),Melanin content of the two tested samples for each test article ([3]; Day 14),"macroscopic lightening compared with the negative control ([1]; Days 3, 7, and 10)",melanin content compared with the negative control (in words) ([3]; Day 10 and Day 14)
"CC1(C)[C@@H](O[C@H]2O[C@H](C(=O)[O-])[C@@H](O)[C@H](O)[C@H]2O[C@@H]2O[C@H](C(=O)[O-])[C@@H](O)[C@H](O)[C@H]2O)CC[C@]2(C)[C@H]3C(=O)C=C4[C@@H]5C[C@@](C)(C(=O)O)CC[C@]5(C)CC[C@@]4(C)[C@]3(C)CC[C@@H]12.[K+].[K+] [DG, dipotassium glycyrrhizate]",lightening effect,94.62%,94.46%,100.6%,109.5%,24.8 μg/tissue,27.3 μg/tissue and 22.3 μg/tissue,85.8%,118.7%,31.8 μg/tissue,26.0 μg/tissue and 37.6 μg/tissue,–,–
"O=c1cc(CO)occ1O [Positive Control, kojic acid]",–,–,–,91.9%,100.0%,22.7 μg/tissue,25.0 μg/tissue and 20.3 μg/tissue,72.3%,100.0%,26.8 μg/tissue,26.6 μg/tissue and 27.0 μg/tissue,lighter than the negative control,lower melanin content than the negative control
